Data published in patent publication US20250296953A1, “3,4-THIAZOLO-STEROIDS AND METHODS OF MAKING AND USING THE SAME” (Arkansas State University - Jonesboro, priority 2018, published 2025).

Tests used:
Assay in all cases: Melanoma cytotoxicity assay (resazurin)
Format in all cases: cell-based
SK-MEL-28 = conditions: for SK-MEL-28 (% viability): human, 24 h; for SK-MEL-28 (% inhibition): SK-MEL-28 melanoma cells, 24 hours with compound, resazurin, concentration not given
Procedure: (§1) Cytotoxicity Assay: Melanoma cells (˜4000 cells in each well) were incubated in a 96 well plates at 37° C. in 5% CO2 for 24 hours. Compounds were added in triplicates and the plate was further incubated for 24 hours. DMSO and dacarbazine were added as technical and positive controls respectively. Next day resazurin was added and the plate was further incubated for 6 hours followed by reading the plate at 544 nm (excitation) and 590 nm (emission) using BMG Labtech Fluostar Optima plate reader. IC50 values were determined by using Graphpad Prism.
(§2) On day 1, the cell line trypsinized and centrifuged to form cell pellet. The pellet was diluted in media, then counted using Countess automated cell counter. Approximately 4000 cells (198 uL) per well plated in […]. A control well of 200 uL growth media was also prepared. Wells closest to plate perimeter were filled with 200 uL PBS to prevent inner well evaporation. The 96 well plates are incubated in 37° C. incubator at 5% CO2 for 24 hours.
(§3) On day 2, compounds were added (in triplicate) along with DMSO/Dacarbazine controls (2 uL) added to bring wells to volume of 200 μL. The 96 well plates are incubated in 37° C. incubator at 5% CO2 for 24 hours.
(§4) On day 3, 40 μL of 0.15 mg/ml reszurin solution added to wells. Samples were placed in a 37° C. incubator at 5% CO2 for 6 hours. Excitation and emission for fluorescence measured at 544 nm and 590 nm using BMG Labtech Fluostar Optima plate reader
(§5) Percent viability determined by taking average of each triplicate well fluorescence and subtracting GM well reading to remove the background signal. This difference is then divided by the average of the negative control (DMSO) wells to determine percent viability.
(§6) IC50s were determined by using cereal dilution of compound to determine viability. Viabilities and concentration of cells are analyzed in Graphpad Prism by creating sigmoidal curve graph, which will determine the IC50 concentration.
(§7) We analyzed the ability of the thiazole-androstane derivatives to inhibit growth in various melanoma cell lines. The growth inhibition against melanoma cell lines of various compound is shown below in Tables 19 and 20. Inhibition results are reported as the IC50 concentration in μM of the indicated compound or as the percent viability […] of the indicated compound. NA=not available.

SK-MEL-5 = SK-MEL-5 melanoma cells, 24 hours with compound, resazurin; concentration not given
Procedure: as §1, §2, §3, §4, §5, §6, §7

SK-MEL-25 = SK-MEL-25 melanoma cells, 24 hours with compound, resazurin; concentration not given
Procedure: as §1, §2, §3, §4, §5, §6, §7

| Compound | SK-MEL-28 (% viability) (SK-MEL-28) | SK-MEL-28 (% inhibition) (SK-MEL-28) | SK-MEL-5 (% inhibition) (SK-MEL-5) | SK-MEL-25 (% inhibition) (SK-MEL-25) |
| --- | --- | --- | --- | --- |
| Cc1nc2c(s1)C1=CC[C@H]3[C@@H]4CC[C@H](O)[C@@]4(C)CC[C@@H]3[C@@]1(C)CC2 [III.1, (1S,2R,13R,14S,17S,18S)-2,7,18-trimethyl-8-thia-6-azapentacyclo[11.7.0.02,10.05,9.014,18]icosa-5(9),6,10-trien-17-ol] | 58% |  |  |  |
| C[C@]12CC[C@H]3[C@@H](CC=C4c5sc(-c6ccccn6)nc5CC[C@@]43C)[C@@H]1CC[C@@H]2O [III.4, (1S,2R,13R,14S,17S,18S)-2,18-dimethyl-7-(2-pyridyl)-8-thia-6-azapentacyclo[11.7.0.02,10.05,9.014,18]icosa-5(9),6,10-trien-17-ol] | 86% |  |  |  |
| C[C@]12CC[C@H]3[C@@H](CC=C4c5sc(-c6ccccc6O)nc5CC[C@@]43C)[C@@H]1CC[C@@H]2O [III.6, (1S,2R,13R,14S,17S,18S)-7-(2-hydroxyphenyl)-2,18-dimethyl-8-thia-6-azapentacyclo[11.7.0.02,10.05,9.014,18]icosa-5(9),6,10-trien-17-ol] | 32% |  |  |  |
| C[C@]12CC[C@H]3[C@@H](CC=C4c5sc(-c6ccc(O)c(O)c6)nc5CC[C@@]43C)[C@@H]1CC[C@@H]2O [III.7, 4-[(1S,2R,13R,14S,17S,18S)-17-hydroxy-2,18-dimethyl-8-thia-6-azapentacyclo[11.7.0.02,10.05,9.014,18]icosa-5(9),6,10-trien-7-yl]benzene-1,2-diol] | 11% |  |  |  |
| C[C@]12CC[C@H]3[C@@H](CC=C4c5sc(-c6ccc(Br)cc6)nc5CC[C@@]43C)[C@@H]1CC[C@@H]2O [III.19, (1S,2R,13R,14S,17S,18S)-7-(4-bromophenyl)-2,18-dimethyl-8-thia-6-azapentacyclo[11.7.0.02,10.05,9.014,18]icosa-5(9),6,10-trien-17-ol] | 58% |  |  |  |
| C[C@]12CCc3sc(N)nc3C1=CC[C@@H]1[C@@H]2CC[C@]2(C)C(=O)CC[C@@H]12 [IIa.1, (1S,2R,13R,14S,18S)-7-amino-2,18-dimethyl-6-thia-8-azapentacyclo[11.7.0.02,10.05,9.014,18]icosa-5(9),7,10-trien-17-one] |  | 1% | 29% |  |
| C=CCNc1nc2c(s1)CC[C@@]1(C)C2=CC[C@@H]2[C@@H]1CC[C@]1(C)C(=O)CC[C@@H]21 [IIa.3, (1S,2R,13R,14S,18S)-7-(allylamino)-2,18-dimethyl-6-thia-8-azapentacyclo[11.7.0.02,10.05,9.014,18]icosa-5(9),7,10-trien-17-one] |  | 65% | 57% | 68% |
| C[C@]12CCc3sc(NCCCN4CCOCC4)nc3C1=CC[C@@H]1[C@@H]2CC[C@]2(C)C(=O)CC[C@@H]12 [IIa.4, (1S,2R,13R,14S,18S)-2,18-dimethyl-7-(3-morpholinopropylamino)-6-thia-8-azapentacyclo[11.7.0.02,10.05,9.014,18]icosa-5(9),7,10-trien-17-one] |  |  | 74% | 66% |
| C[C@]12CCc3sc(NCc4ccccc4)nc3C1=CC[C@@H]1[C@@H]2CC[C@]2(C)C(=O)CC[C@@H]12 [IIa.5, (1S,2R,13R,14S,18S)-7-(benzylamino)-2,18-dimethyl-6-thia-8-azapentacyclo[11.7.0.02,10.05,9.014,18]icosa-5(9),7,10-trien-17-one] |  | 97% | 46% | 6% |
| C[C@]12CCc3sc(Nc4ccccc4)nc3C1=CC[C@@H]1[C@@H]2CC[C@]2(C)C(=O)CC[C@@H]12 [IIa.7, (1S,2R,13R,14S,18S)-7-anilino-2,18-dimethyl-6-thia-8-azapentacyclo[11.7.0.02,10.05,9.014,18]icosa-5(9),7,10-trien-17-one] |  | 43% |  |  |
| C[C@]12CCc3nc(Nc4ccc(F)cc4)sc3C1=CC[C@@H]1[C@@H]2CC[C@]2(C)C(=O)CC[C@@H]12 [IIa.9, (1S,2R,13R,14S,18S)-7-(4-fluoroanilino)-2,18-dimethyl-8-thia-6-azapentacyclo[11.7.0.02,10.05,9.014,18]icosa-5(9),6,10-trien-17-one] |  | 90% | 58% | 61% |
| C[C@]12CCc3sc(Nc4ccccc4[N+](=O)[O-])nc3C1=CC[C@@H]1[C@@H]2CC[C@]2(C)C(=O)CC[C@@H]12 [IIa.13, (1S,2R,13R,14S,18S)-2,18-dimethyl-7-(2-nitroanilino)-6-thia-8-azapentacyclo[11.7.0.02,10.05,9.014,18]icosa-5(9),7,10-trien-17-one] |  | 6% | 36% | 58% |
| COc1ccccc1Nc1nc2c(s1)CC[C@@]1(C)C2=CC[C@@H]2[C@@H]1CC[C@]1(C)C(=O)CC[C@@H]21 [IIa.15, (1S,2R,13R,14S,18S)-7-(2-methoxyanilino)-2,18-dimethyl-6-thia-8-azapentacyclo[11.7.0.02,10.05,9.014,18]icosa-5(9),7,10-trien-17-one] |  | 13% | 76% | 67% |
| COc1ccc(OC)c(Nc2nc3c(s2)CC[C@@]2(C)C3=CC[C@@H]3[C@@H]2CC[C@]2(C)C(=O)CC[C@@H]32)c1 [IIa.16, (1S,2R,13R,14S,18S)-7-(2,5-dimethoxyanilino)-2,18-dimethyl-6-thia-8-azapentacyclo[11.7.0.02,10.05,9.014,18]icosa-5(9),7,10-trien-17-one] |  | 86% | 81% | 70% |
| COc1ccc(Cl)cc1Nc1nc2c(s1)CC[C@@]1(C)C2=CC[C@@H]2[C@@H]1CC[C@]1(C)C(=O)CC[C@@H]21 [IIa.20, (1S,2R,13R,14S,18S)-7-(5-chloro-2-methoxy-anilino)-2,18-dimethyl-6-thia-8-azapentacyclo[11.7.0.02,10.05,9.014,18]icosa-5(9),7,10-trien-17-one] |  | 95% | 70% | 83% |
| C[C@]12CCc3sc(Nc4ccccn4)nc3C1=CC[C@@H]1[C@@H]2CC[C@]2(C)C(=O)CC[C@@H]12 [IIa.21, (1S,2R,13R,14S,18S)-2,18-dimethyl-7-(2-pyridylamino)-6-thia-8-azapentacyclo[11.7.0.02,10.05,9.014,18]icosa-5(9),7,10-trien-17-one] |  | 93% | 88% | 58% |
| C[C@]12CCc3sc(Nc4ncccn4)nc3C1=CC[C@@H]1[C@@H]2CC[C@]2(C)C(=O)CC[C@@H]12 [IIa.22, (1S,2R,13R,14S,18S)-2,18-dimethyl-7-(pyrimidin-2-ylamino)-6-thia-8-azapentacyclo[11.7.0.02,10.05,9.014,18]icosa-5(9),7,10-trien-17-one] |  | 4% | 15% | 3% |
| C[C@]12CCc3sc(Nc4ccc(C(=O)O)cc4)nc3C1=CC[C@@H]1[C@@H]2CC[C@]2(C)C(=O)CC[C@@H]12 [IIa.23, 4-[[(1S,2R,13R,14S,18S)-2,18-dimethyl-17-oxo-6-thia-8-azapentacyclo[11.7.0.02,10.05,9.014,18]icosa-5(9),7,10-trien-7-yl]amino]benzoic acid] |  | 78% | 43% | 71% |
| CCNc1nc2c(s1)CC[C@@]1(C)C2=CC[C@@H]2[C@@H]1CC[C@]1(C)C(=O)CC[C@@H]21 [IIa.30, (1S,2R,13R,14S,18S)-7-(ethylamino)-2,18-dimethyl-6-thia-8-azapentacyclo[11.7.0.02,10.05,9.014,18]icosa-5(9),7,10-trien-17-one] |  | 67% | 26% | 4% |
| CCCCNC1=NC2C3=CC[C@@H]4[C@H](CC[C@]5(C)C(=O)CC[C@@H]45)[C@@]3(C)CCC2S1 (stereo partly drawn) [IIa.31, (1S,2R,13R,14S,18S)-7-(butylamino)-2,18-dimethyl-6-thia-8-azapentacyclo[11.7.0.02,10.05,9.014,18]icosa-7,10-dien-17-one] |  | 93% | 69% | 74% |
| C[C@]12CCc3sc(Nc4ccccc4F)nc3C1=CC[C@@H]1[C@@H]2CC[C@]2(C)C(=O)CC[C@@H]12 [IIa.33, (1S,2R,13R,14S,18S)-7-(2-fluoroanilino)-2,18-dimethyl-6-thia-8-azapentacyclo[11.7.0.02,10.05,9.014,18]icosa-5(9),7,10-trien-17-one] |  | 66% | 87% | 77% |
